According to the CheMixHub viscosity set:

Experiment: xn = mol fraction of the nth substance listed

CCOc1ccccc1 + CCNc1ccccc1
viscosity [mPa·s], 101 kPa
Conditions	293.15 K	298.15 K	303.15 K	308.15 K	313.15 K	318.15 K	323.15 K
x2 = 0.0508	1.253	1.161	1.063	0.999	0.933	0.868	0.808
x2 = 0.1098	1.291	1.19	1.088	1.021	0.953	0.884	0.823
x2 = 0.1509	1.317	1.211	1.105	1.036	0.965	0.896	0.832
x2 = 0.2097	1.355	1.241	1.131	1.057	0.983	0.91	0.845
x2 = 0.2533	1.386	1.265	1.151	1.072	0.996	0.921	0.855
x2 = 0.3046	1.423	1.295	1.176	1.093	1.012	0.935	0.866
x2 = 0.3501	1.459	1.323	1.2	1.112	1.028	0.948	0.878
x2 = 0.4081	1.51	1.364	1.234	1.141	1.052	0.967	0.894
x2 = 0.4533	1.552	1.397	1.262	1.164	1.071	0.984	0.908
x2 = 0.5003	1.599	1.435	1.295	1.191	1.094	1.003	0.924
x2 = 0.5519	1.655	1.479	1.333	1.223	1.122	1.027	0.944
x2 = 0.6068	1.719	1.531	1.377	1.26	1.153	1.054	0.967
x2 = 0.6496	1.772	1.574	1.414	1.291	1.18	1.077	0.986
x2 = 0.7065	1.846	1.633	1.464	1.333	1.215	1.107	1.012
x2 = 0.7497	1.906	1.682	1.506	1.367	1.244	1.131	1.033
x2 = 0.7998	1.978	1.739	1.554	1.407	1.278	1.16	1.058
x2 = 0.8505	2.055	1.798	1.604	1.447	1.311	1.188	1.082
x2 = 0.9019	2.133	1.859	1.653	1.487	1.344	1.214	1.105
x2 = 0.9502	2.205	1.914	1.699	1.525	1.374	1.239	1.125

CC(=O)[C@@]12O[C@@H]1C[C@H]1[C@@H]3CCC4=CC(=O)CC[C@]4(C)[C@H]3[C@H](O)C[C@@]12C + ClC(Cl)Cl
viscosity [mPa·s]
Conditions	295.7 K	299.65 K	303.75 K	307.65 K	312.15 K	317.15 K	321.15 K
100 kPa, x1 = 0.00321	0.57	0.536	0.52	0.498	0.491	0.48	0.454
100 kPa, x1 = 0.004735	0.582	0.553	0.53	0.506	0.5	0.485	0.463
100 kPa, x1 = 0.006205	0.596	0.564	0.544	0.515	0.505	0.492	0.474
100 kPa, x1 = 0.007786	0.612	0.577	0.552	0.524	0.515	0.499	0.48
100 kPa, x1 = 0.009221	0.629	0.593	0.566	0.532	0.522	0.506	0.489
100 kPa, x1 = 0.01088	0.646	0.609	0.578	0.544	0.529	0.516	0.501
100 kPa, x1 = 0.01243	0.662	0.617	0.585	0.554	0.54	0.523	0.513
101 kPa, x1 = 0.003181	0.57	0.536	0.52	0.498	0.491	0.48	0.454
101 kPa, x1 = 0.00467	0.582	0.553	0.53	0.506	0.5	0.485	0.463
101 kPa, x1 = 0.006096	0.596	0.564	0.544	0.515	0.505	0.492	0.474
101 kPa, x1 = 0.007615	0.612	0.577	0.552	0.524	0.515	0.499	0.48
101 kPa, x1 = 0.008981	0.629	0.593	0.566	0.532	0.522	0.506	0.489
101 kPa, x1 = 0.01055	0.646	0.609	0.578	0.544	0.529	0.516	0.501
101 kPa, x1 = 0.01199	0.662	0.617	0.585	0.554	0.54	0.523	0.513

OCC(O)CO + O
Conditions	viscosity [mPa·s]
293.15 K, 101.33 kPa, x1 = 0.021	1.307
293.15 K, 101.33 kPa, x1 = 0.047	1.952
293.15 K, 101.33 kPa, x1 = 0.077	2.817
293.15 K, 101.33 kPa, x1 = 0.12	4.618
293.15 K, 101.33 kPa, x1 = 0.16	7.693
298.15 K, 101 kPa, x1 = 0.0866	2.708
298.15 K, 101 kPa, x1 = 0.1636	7.353
298.15 K, 101 kPa, x1 = 0.2269	13.77
298.15 K, 101 kPa, x1 = 0.3134	27.75
298.15 K, 101 kPa, x1 = 0.439	59.74
298.15 K, 101 kPa, x1 = 0.5124	88.48
298.15 K, 101 kPa, x1 = 0.6378	163.1
298.15 K, 101 kPa, x1 = 0.7036	220.8
298.15 K, 101 kPa, x1 = 0.7684	297.3
298.15 K, 101 kPa, x1 = 0.8478	429.9
298.15 K, 101 kPa, x1 = 0.9176	604.8
298.15 K, 101 kPa, x1 = 0.9561	734.9
300.65 K, 101 kPa, x1 = 0.2636	10.84
300.65 K, 101 kPa, x1 = 0.2837	12.68
300.65 K, 101 kPa, x1 = 0.3153	16.23
300.65 K, 101 kPa, x1 = 0.3391	19.56
300.65 K, 101 kPa, x1 = 0.365	23.64
300.65 K, 101 kPa, x1 = 0.3785	26.06
300.65 K, 101 kPa, x1 = 0.4055	31.58
300.65 K, 101 kPa, x1 = 0.4294	37.49
300.65 K, 101 kPa, x1 = 0.485	54.01
300.65 K, 101 kPa, x1 = 0.5117	64.08
300.65 K, 101 kPa, x1 = 0.5472	79.81
300.65 K, 101 kPa, x1 = 0.5575	85.2
300.65 K, 101 kPa, x1 = 0.5867	102.7
300.65 K, 101 kPa, x1 = 0.6349	135.1
300.65 K, 101 kPa, x1 = 0.659	154.4
300.65 K, 101 kPa, x1 = 0.6978	191.6
300.65 K, 101 kPa, x1 = 0.7166	212.1
300.65 K, 101 kPa, x1 = 0.7442	245.6
300.65 K, 101 kPa, x1 = 0.7646	266.3
300.65 K, 101 kPa, x1 = 0.7947	309.7
300.65 K, 101 kPa, x1 = 0.8114	336.6
300.65 K, 101 kPa, x1 = 0.8274	363.6
300.65 K, 101 kPa, x1 = 0.8428	389.9
300.65 K, 101 kPa, x1 = 0.859	420.7
300.65 K, 101 kPa, x1 = 0.9082	519.8
300.65 K, 101 kPa, x1 = 0.9434	607.3
300.65 K, 101 kPa, x2 = 0.0171	715.5
303.15 K, 101 kPa, x1 = 0.00777	0.877
303.15 K, 101 kPa, x1 = 0.0152	0.956
303.15 K, 101 kPa, x1 = 0.02262	1.04
303.15 K, 101 kPa, x1 = 0.03118	1.147
303.15 K, 101 kPa, x1 = 0.03958	1.259
303.15 K, 101 kPa, x1 = 0.04604	1.351
303.15 K, 101 kPa, x1 = 0.05683	1.52
303.15 K, 101 kPa, x1 = 0.07063	1.751
303.15 K, 101 kPa, x1 = 0.07885	1.907
303.15 K, 101 kPa, x1 = 0.08828	2.098
303.15 K, 101 kPa, x1 = 0.1003	2.364
303.15 K, 101 kPa, x1 = 0.1112	2.625
303.15 K, 101 kPa, x1 = 0.1223	2.919
303.15 K, 101 kPa, x1 = 0.1369	3.347
303.15 K, 101 kPa, x1 = 0.154	3.909
303.15 K, 101 kPa, x1 = 0.171	4.552
303.15 K, 101 kPa, x1 = 0.1874	5.236
303.15 K, 101 kPa, x1 = 0.1967	5.679
303.15 K, 101 kPa, x1 = 0.2067	6.187
303.15 K, 101 kPa, x1 = 0.2178	6.77
303.15 K, 101 kPa, x1 = 0.225	7.222
303.15 K, 101 kPa, x1 = 0.2378	7.986
303.15 K, 101 kPa, x1 = 0.2459	8.548
303.15 K, 101 kPa, x1 = 0.2622	9.75
303.15 K, 101 kPa, x1 = 0.2636	9.8
303.15 K, 101 kPa, x1 = 0.2837	11.4
303.15 K, 101 kPa, x1 = 0.3153	14.53
303.15 K, 101 kPa, x1 = 0.3391	17.41
303.15 K, 101 kPa, x1 = 0.365	20.97
303.15 K, 101 kPa, x1 = 0.3785	23.02
303.15 K, 101 kPa, x1 = 0.4055	27.81
303.15 K, 101 kPa, x1 = 0.4294	32.86
303.15 K, 101 kPa, x1 = 0.485	46.9
303.15 K, 101 kPa, x1 = 0.5117	55.29
303.15 K, 101 kPa, x1 = 0.5472	68.64
303.15 K, 101 kPa, x1 = 0.5575	73.12
303.15 K, 101 kPa, x1 = 0.5867	87.65
303.15 K, 101 kPa, x1 = 0.6349	114.5
303.15 K, 101 kPa, x1 = 0.659	130.4
303.15 K, 101 kPa, x1 = 0.6978	161
303.15 K, 101 kPa, x1 = 0.7166	177.9
303.15 K, 101.33 kPa, x1 = 0.021	1.057
303.15 K, 101.33 kPa, x1 = 0.047	1.46
303.15 K, 101.33 kPa, x1 = 0.077	2.006
303.15 K, 101.33 kPa, x1 = 0.12	3.309
303.15 K, 101.33 kPa, x1 = 0.16	5.252
313.15 K, 101.33 kPa, x1 = 0.021	0.843
313.15 K, 101.33 kPa, x1 = 0.047	1.086
313.15 K, 101.33 kPa, x1 = 0.077	1.465
313.15 K, 101.33 kPa, x1 = 0.12	2.226
313.15 K, 101.33 kPa, x1 = 0.16	3.499
323.15 K, 101.33 kPa, x1 = 0.021	0.68
323.15 K, 101.33 kPa, x1 = 0.047	0.876
323.15 K, 101.33 kPa, x1 = 0.077	1.095
323.15 K, 101.33 kPa, x1 = 0.12	1.666
323.15 K, 101.33 kPa, x1 = 0.16	2.587
